Patent US20020197670A1, “Membrane associated progesterone receptor” (priority 2001, published 2002)

How the values were obtained:
[1] = system: Aortic endothelial cells (HAEC); assay: Calcium response of HAEC to progesterone (fluo-3AM fluorescence); assay type: cell-based, human; conditions: progesterone 50 μM
Procedure: Aortic endothelial cells were cultured in 100 cm petri dishes. All solutions including washes contained probenecid, a chemical that minimizes leakage of fluorophore from the cells. The medium contained BSA, fluo-3-[…] (fluo-3AM), and pluronic F-127, an agent that facilitates diffusion of fluorophore through cell membranes. The cells were incubated for 1 hour at RT. Following incubation, the cells were washed several times and then treated with trypsin. After washing, the cells were enumerated by counting in a hemacytometer and the cell number was adjusted to a predetermined value. Progesterone (50 μM) was added to cell suspensions just prior to fluorescence measurement. An aliquot of the cell suspension was placed in a cuvette and measured in a SLM-8000C fluorescence spectrophotometer. The cells were excited at 504 nm and emitted fluorescence measured at 526 nm. The data (not shown) establishes an immediate 1.5-fold increase in calcium influx with exposure to progesterone. Since this reaction occurred within 2-3 seconds, it is clear that this is a nongenomic response to a sex steroid.

membrane PR in HAEC = assay: Fluorescent membrane labeling of HAEC at 4° C.; assay type: cell-based, human; conditions: for fluorescent membrane labeling / membrane binding: 4° C. (cells impermeable), FIG. 13A
Procedure: Fluorescent membrane labeling studies were performed with both ligand (progesterone conjugated to BSA) and with antibody C19 at 4° C. Experimentation at cold temperatures keeps the cells impermeable; thus, ligand or antibody cannot enter the cell, and specific binding is restricted to the membrane.
In FIG. 13B, a light microscopy image of the same field as in FIG. 13A is shown to illustrate the position of the cells.
Controls used for these experiments include exposure with BSA and the fluorescent tag in the absence of progesterone for the ligand binding study and use of peptide neutralization for the antibody labeling study. […] Approximately 10% of all cells show positive staining. This percentage has been found by other investigators in experiments with sperm. The reason for this low percentage of staining is not yet clear. One possibility includes differential expression of the membrane PR during the cell cycle.

| Compound | increase in calcium influx ([1]; HAEC suspension, fluo-3AM, excitation 504 nm, emission 526 nm, data not shown) [fold] | time within which the calcium reaction occurred ([1]; HAEC) [s] | fluorescent membrane labeling / membrane binding (membrane PR in HAEC) | cells showing positive staining for the membrane PR (membrane PR in HAEC; fluorescent membrane labeling, 4° C., FIGS. 13A-13D) |
| --- | --- | --- | --- | --- |
| CC(=O)[C@H]1CC[C@H]2[C@@H]3CCC4=CC(=O)CC[C@]4(C)[C@H]3CC[C@]12C [progesterone, Progesterone] | 1.5 | 2 to 3 | specific membrane binding | Approximately 10% |
| progesterone conjugated to BSA: progesterone-conjugated bovine serum albumin-fluorescein isothiocyanate (Sigma), ligand for fluorescent membrane labeling |  |  | staining of the membrane is well seen |  |
